Patent publication US11440932B2, “Surfactant compounds-clips for extraction and stabilization in solution of membrane proteins” (CENTRE NATIONAL DE LA RECHERCHE SCIENTIFIQUE, priority 2017, dated 2022)

Key:
[1] = Diameter of micelles by dynamic light scattering (DLS); assay type: physicochemical; conditions: estimated micelle diameter by DLS; 30 mM tris-HCl, pH 8.0
Experimental: FIG. 5 depicts the dynamic light scattering (DLS) of clips, in intensity (%, column A on the left) and in number (%, column B on the right), as a function of the […] (nm). The estimated diameters are indicated on each panel (column A). Columns A and B, from top to bottom: compound 3.7c (10 mM, 5×CMC), compound 3.7d (10 mM, 5×CMC), compound 3.7e (2 mM, […]), compound 3.7f (10 mM, 500×CMC), compound 3.7h (1 mM, 100×CMC), compound 3.7j (2 mM, 100×CMC), compound 3.9a (1 mM, 50×CMC).
Another physicochemical parameter of the micelles of detergents is their diameter, assuming that they are spherical. This dimension is obtained by the light scattering (DLS) technique.
Procedure. The molecules of the invention tested were prepared in a range of concentrations extending from 0.1 to 1000×CMC in 30 mM tris-HCl, pH 8.0 and neutralized at this pH. The solutions are filtered on 0.22 μm. The measurement is carried out on 100 μl, in triplicate on a Zetasizer Nano-S from Malvern Instruments.

BmrA [2] = target: T1, BmrA (Bacillus subtilis, UniProt O06967); assay: Extraction of BmrA from membranes (SDS-PAGE of supernatant); parameters: species or system bacterial; overexpressed in E. coli C41DE3; conditions: detergent 10 g/l unless indicated otherwise; 2 h at 4° C.
T1 construct: His tag; made in house; host or cells: E. coli C41(DE3)
Experimental: (§1) FIG. 6 depicts the extraction of the membrane proteins BmrA (panels A and C) and AcrB (panels B and D) using commercial detergents and the molecules of the invention (panels A and B, from left to right): SDS, DDM, FC12, TX100, compounds of the invention 1.4, 1.5, 2.3a, 2.3b, 2.3c, 2.3d, 2.3e, 2.3f, 2.3g, 2.3h, 2.3i, 3.7a, 3.7b; panel C: compounds of the invention 3.7c 0.8%, 3.7d 0.16%, 3.7e 0.8%, 3.7f 0.3%, 3.7g 0.4%, 3.7h 0.2%, 3.7i 0.07%, 3.7j 0.09%, 3.7k, 3.7l, 0.25%, 3.9a, 4.5a, 4.5b, 4.5c, 4.5d 0.34%, 4.6a, 4.6b, 4.6c, 4.6d, 5.3a, 5.3b, 5.3c 0.3%, 5.3d 0.3%; panel D: 3.7c, 3.7d, 3.7e, 3.7f, 3.7h, 3.7i 0.1%, 3.7j, 3.7k, 3.7l, 3.9a, 4.5a, 4.5b, 4.5c, 4.5d, 4.6a, 4.6b, 4.6c, 4.6d. The detergents are added at 10 g/l (1%), unless indicated otherwise. The equivalent of 20 μg of proteins of the extracted fraction after centrifugation at 100 000×g for 30 min is deposited on 10% SDS-PAGE, stained with Coomassie blue after migration. BmrA migrates in its monomeric form to the level of the 55 kDa band; AcrB migrates in its monomeric form to the level of the 100 kDa band. SDS=sodium dodecyl sulfate; DDM=β-D-dodecyl maltoside; FC12=foscholine-12; TX100=triton X-100.
(§2) The extraction capacity of the detergents of the series is tested on membranes in which BmrA or AcrB are strongly expressed. The extraction with the clips (molecules of the invention) is compared to that obtained with commercial detergents, used as reference.
(§3) Procedure. BmrA represents 25% of the proteins present in the overexpression system used (E. coli, C41DE3). These membranes are prepared as described previously (Matar-Merheb, R. et al. ([11])). The membranes containing AcrB (approximately 20% of the membrane proteins, same expression system as BmrA) were prepared as described previously (Seeger, M. A. et al. ([21])). The detergents are used at 10 g/l unless indicated otherwise, and the proteins diluted at 2 g/l in a 20 mM Tris-HCl buffer, pH 8.0, 100 mM NaCl, 15% glycerol, with protease inhibitors (Roche) added thereto at an amount of one tablet/100 ml. The mixture (T) is incubated for 2 h at 4° C. then centrifuged for 1 h at 4° C. at 100 000×g in order to separate the extracted fraction (supernatant, S) from that which is not extracted (pellet). The supernatants are deposited on 10% SDS-PAGE and stained with Coomassie blue after migration. The foscholine 12, DDM and LMNG originate from Anatrace, the SDS and Triton X100 originate from Sigma-Aldrich.

AcrB = target: T2, AcrB (Escherichia coli, UniProt P31224); assay: Extraction of AcrB from membranes (SDS-PAGE of supernatant); parameters: species or system bacterial; same expression system (E. coli C41DE3); conditions: detergent 10 g/l unless indicated otherwise; 2 h at 4° C.
T2 construct: made in house; host or cells: E. coli C41(DE3)
Experimental: as §1, §2, §3

[3] = Critical micelle concentration (CMC) by DPH fluorescence; assay type: physicochemical; conditions: for CMC: 50 mM tris-HCl, pH 8.0
Experimental: FIG. 4 represents the fluorescence (%) of DPH (1,6-diphenyl-1,3,5-hexatriene) in the presence of increasing concentrations (0.0001 mM, 0.001 mM, 0.01 mM, 0.1 mM, 1 mM and 10 mM) of clips (compounds of the invention), exemplified with the compounds #3.7e (C13, points represented by squares) and 3.7f (C18, points represented by circles). The experiment is carried out in triplicates. In accordance with Chattopadhyay, A. & London, E ([22]), the CMC corresponds to the concentration at which the breakage in the slope is observed, here at 20 μM for 3.7f and 2 mM for 3.7e (black symbols).
Procedure. The molecules of the invention were prepared in a range of concentrations extending from 0.1 μM to 10 mM in 50 mM tris-HCl, pH 8.0 and neutralized at this pH. To 80 μl of each solution (triplicate), the same volume of 10 μM of 1,6-diphenyl-1,3,5-hexatriene (DPH, Sigma, D208000) is added, prepared at 100 μM in tetrahydrofuran then diluted 10-fold in H2O. The increase in the fluorescence of the DPH occurs when the latter find micelles of clips into which it can insert itself (Chattopadhyay, A. & London, E. Fluorimetric determination of critical micelle concentration avoiding interference from detergent charge. Anal Biochem 139, 408-412 (1984) ([22])). The fluorescence is read with a Xenius SAFAS fluorimeter by exciting at 358 nm and recording the fluorescence emission at 430 nm, with slits of 9 to 10 nm for the excitation and the emission and a gain of 100 to 150, depending on the cases.
Results. The CMC of the detergents is the concentration starting from which they associate with one another to form micelles, in which, in aqueous solution, the hydrophobic portions are grouped together at the center and the hydrophilic regions are exposed to the solvent. […] A typical result obtained with a compound 3.7 provided with a C13 (3.7e) or C18 ([…]) aliphatic chain is illustrated in FIG. 4.

BmrA [4] = target: T1, BmrA; assay: Size exclusion chromatography of BmrA after detergent exchange; conditions: Superdex 200 5/150, 2 CMC of detergent, 0.3 ml/min
Experimental: The membrane fraction was extracted and purified in DDM by Ni-NTA metal affinity and Superdex 200 size exclusion, before being reloaded on Ni-NTA in order to exchange the DDM either with itself or with the compound 3.7c. Each pool was subsequently loaded onto a 3 ml Superdex S200 5/150 size exclusion column and eluted in the presence of 2 CMC of the same detergent, as indicated. The proteins are detected by absorbance at 280 nm.
The capacity of the compounds of the invention to maintain the membrane proteins in a native state was exemplified with the compound 3.7c of the invention, monitored by size exclusion chromatography and compared to the reference detergent DDM.
Procedure: BmrA was extracted in DDM and purified by Ni-NTA affinity chromatography as described in example 13, then loaded onto a Superdex 200 10/300 size exclusion column and eluted with 50 mM Hepes-HCl pH 8.0, 100 mM NaCl, 0.4 mM DDM (2×CMC). The fractions containing BmrA were pooled and separated into several aliquots (˜100 μg) kept at 4° C. One aliquot was subsequently reloaded onto an affinity column containing 1 ml of resin. The DDM was then exchanged against 10 volumes of Hepes-NaCl buffer containing either 2 CMC of DDM (control experiment) or 2 CMC of compound 3.7c (2 mM). BmrA was subsequently eluted in the respective buffers with 100 mM of imidazole added. The fractions containing the proteins were combined and concentrated on 50 kDa amicon (regenerated cellulose) to 50 μl, and were then deposited on a 3 ml Superdex 200 5/150 size exclusion column, equilibrated in 50 mM Hepes-HCl pH 8.0, 100 mM NaCl, and 2 CMC of DDM (0.4 mM) or 3.7c (2 mM). The elution was subsequently carried out at 0.3 ml/min in the respective buffers and the BmrA detected at 280 nm.

T2 sequence (P31224 whole entry): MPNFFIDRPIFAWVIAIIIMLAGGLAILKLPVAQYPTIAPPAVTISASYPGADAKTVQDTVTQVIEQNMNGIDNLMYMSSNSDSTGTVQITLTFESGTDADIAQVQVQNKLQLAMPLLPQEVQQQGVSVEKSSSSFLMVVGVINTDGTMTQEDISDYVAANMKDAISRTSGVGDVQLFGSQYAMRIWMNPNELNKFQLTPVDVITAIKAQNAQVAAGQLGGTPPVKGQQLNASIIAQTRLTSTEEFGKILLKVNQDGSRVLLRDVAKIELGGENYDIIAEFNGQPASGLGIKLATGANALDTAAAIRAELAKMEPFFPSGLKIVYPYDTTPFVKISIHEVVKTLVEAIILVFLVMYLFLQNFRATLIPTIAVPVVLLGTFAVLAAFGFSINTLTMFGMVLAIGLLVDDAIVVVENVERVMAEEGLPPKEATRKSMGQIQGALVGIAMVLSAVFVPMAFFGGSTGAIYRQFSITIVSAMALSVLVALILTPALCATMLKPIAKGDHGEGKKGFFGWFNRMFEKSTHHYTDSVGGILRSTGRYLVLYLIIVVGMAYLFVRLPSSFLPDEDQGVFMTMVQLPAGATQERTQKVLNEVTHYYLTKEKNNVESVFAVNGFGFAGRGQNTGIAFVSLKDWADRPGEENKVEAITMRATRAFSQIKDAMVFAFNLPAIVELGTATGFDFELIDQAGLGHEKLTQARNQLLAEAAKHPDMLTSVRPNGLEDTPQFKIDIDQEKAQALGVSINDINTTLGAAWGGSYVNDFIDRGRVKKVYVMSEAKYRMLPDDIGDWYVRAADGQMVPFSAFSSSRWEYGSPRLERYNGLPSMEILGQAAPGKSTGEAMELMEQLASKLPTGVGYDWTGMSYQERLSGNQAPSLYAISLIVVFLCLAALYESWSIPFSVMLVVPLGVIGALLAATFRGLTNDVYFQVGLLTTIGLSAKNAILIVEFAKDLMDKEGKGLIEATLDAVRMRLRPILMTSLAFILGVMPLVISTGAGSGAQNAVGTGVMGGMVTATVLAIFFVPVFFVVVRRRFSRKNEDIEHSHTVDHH
T1 sequence (O06967 whole entry): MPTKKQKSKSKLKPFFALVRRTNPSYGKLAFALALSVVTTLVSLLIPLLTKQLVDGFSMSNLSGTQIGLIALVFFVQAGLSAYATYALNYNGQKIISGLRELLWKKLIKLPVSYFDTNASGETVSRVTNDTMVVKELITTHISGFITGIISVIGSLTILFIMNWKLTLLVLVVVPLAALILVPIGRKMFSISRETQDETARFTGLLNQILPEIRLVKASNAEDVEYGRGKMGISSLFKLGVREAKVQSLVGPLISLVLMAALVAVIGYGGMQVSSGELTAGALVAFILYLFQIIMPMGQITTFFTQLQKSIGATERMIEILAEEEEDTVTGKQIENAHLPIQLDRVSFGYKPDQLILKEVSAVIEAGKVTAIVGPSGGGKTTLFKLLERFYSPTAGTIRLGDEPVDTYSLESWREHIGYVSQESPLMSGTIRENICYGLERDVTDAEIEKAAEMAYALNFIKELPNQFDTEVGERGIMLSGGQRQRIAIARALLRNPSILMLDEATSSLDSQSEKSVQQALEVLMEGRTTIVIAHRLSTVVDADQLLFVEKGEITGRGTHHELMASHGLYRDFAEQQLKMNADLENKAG

| SMILES | Ø, nm [1] | extraction of BmrA (BmrA [2]) | extraction of AcrB (AcrB) | CMC [3] | CMC (breakage in the slope of DPH fluorescence, FIG. 4) ([3]; triplicates) | elution volume of BmrA (BmrA [4]) |
| --- | --- | --- | --- | --- | --- | --- |
| CCCCCCCCCCCCCCCCCCC(=O)N[C@@H](COCc1cn(CCO[C@@H]2OC(CO)[C@@H](O)C(O)C2O)nn1)C(=O)N[C@H](CCC(=O)O)C(=O)O (stereo partly shown) [Compound 3.7d] | 5.5 nm | partially extracting | extracting | 0.02 mM |  |  |
| CCCCCCCCCCCCCCCCCCC(=O)N[C@@H](COCc1cn(CCO[C@@H]2OC(CO)[C@@H](O[C@H]3OC(CO)[C@@H](O)C(O)C3O)C(O)C2O)nn1)C(=O)N[C@H](CCC(=O)O)C(=O)O (stereo partly shown) [Compound 3.7f] | 4.0 nm | extracting | extracting | 0.02 mM | 20 µM |  |
| CCCCCCCCCCCCCCCCCCC(=O)N[C@@H](COCc1cn(CCOCCOCCOCCOCCOCCOC)nn1)C(=O)N[C@H](CCC(=O)O)C(=O)O [Compound 3.7h] | 3-4 nm | extracting | extracting | 0.01 mM |  |  |
| CCCCCCCCCCCCO[C@@H]1O[C@H](CO)[C@@H](O[C@H]2O[C@H](CO)[C@@H](O)[C@H](O)[C@H]2O)[C@H](O)[C@H]1O [DDM, n-dodecyl β-d-maltoside, reference compound] |  | solubilize | solubilize |  |  | ~1.6 mL |
